Molecules are shown by their SMILES. Read-outs that look alike come from different tables or passages of the source.

Data on six molecules can be found in patent publication US20100048564A1, “FUSED BICYCLIC HETEROARYL DERIVATIVE” (DAIICHI SANKYO COMPANY, LIMITED, priority 2007, published 2010).

In the experiment the target is T1, human PPARγ2 (Homo sapiens, UniProt P37231).
T1 construct: expressed in transfected cells; host or cells: human osteosarcoma cell line MG63, transiently transfected with pSG5-hPPARγ and pGV-P2-PPRE
T1 sequence (P37231 1-505): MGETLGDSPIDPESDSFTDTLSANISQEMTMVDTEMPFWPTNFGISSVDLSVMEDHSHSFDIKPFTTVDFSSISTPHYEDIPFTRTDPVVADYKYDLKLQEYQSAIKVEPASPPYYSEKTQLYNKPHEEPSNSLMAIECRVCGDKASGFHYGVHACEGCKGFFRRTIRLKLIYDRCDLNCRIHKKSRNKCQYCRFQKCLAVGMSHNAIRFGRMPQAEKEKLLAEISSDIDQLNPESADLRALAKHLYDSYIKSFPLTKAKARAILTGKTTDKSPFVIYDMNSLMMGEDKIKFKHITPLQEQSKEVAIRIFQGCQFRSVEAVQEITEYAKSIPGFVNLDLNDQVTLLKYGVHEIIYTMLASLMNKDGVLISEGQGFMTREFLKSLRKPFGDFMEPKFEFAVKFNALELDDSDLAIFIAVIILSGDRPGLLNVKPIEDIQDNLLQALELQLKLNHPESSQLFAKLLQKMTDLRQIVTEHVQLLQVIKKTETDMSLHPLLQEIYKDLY
In words: Evaluation of PPARγ modulator activity, PPRE luciferase reporter in MG63 cells (Test Example 2). It counts as cell-based. Conditions: for Emax: MG-63; for IC50: in the presence of Compound A, concentration representing (100−Imax)/2; for Imax (%): maximum inhibition of luciferase activity in the presence of Compound A. The protocol: In FIG. 3, the luciferase activity of the positive control group is defined as 100% and the luciferase activity of the control group is defined as 0%.
Polymerase chain reaction (hereinafter “PCR”) primers were designed based on the human PPARγ2 gene sequence (GenBANK accession No. D83233). The recognition sequences for restriction enzyme BglII were added to upstream and downstream regions of a gene encoding human PPARγ2 protein, in which the recognition sequences were necessary for inserting the gene into the restriction site BamHI of the expression plasmid pSG5 (Stratagene) for the gene.
The recognition sequence for restriction enzyme NheI was added to S2 and the recognition sequence for restriction enzyme XhoI was added to AS2 for insertion into the reporter plasmid pGV-P2 (Toyo Ink Mfg. Co., Ltd.).
PCR was carried out using thermostable DNA polymerase Ex-Taq (Takara Shuzo Co., Ltd.) with a human adipose tissue-derived cDNA library (Clontech) as a template and the DNA oligomers S1 and AS1 obtained in Procedure 1 as PCR primers. […] A cycle was repeated 30 times consisting of incubation at 94° C. for one minute, incubation at 55° C. for 30 seconds and incubation at 72° C. for 30 seconds. The resulting DNA fragment of about 1500 bp was partially cleaved by restriction enzyme BglII and inserted into the restriction site BamHI of pSG5 to obtain a human PPARγ expression plasmid pSG5-hPPARγ.
A vector pGV-P2 digest was prepared by digestion with restriction enzymes NheI and XhoI and purification by 1.0% agarose gel electrophoresis. The DNA oligomers S2 and AS2 obtained in Procedure 2 were mixed, incubated in a hot water bath at 94° C. for one minute, and then incubated at 25° C. for one hour to form a double-stranded DNA with S2 and AS2 annealed. Thereafter, the terminals of the double-stranded DNA were phosphorylated using DNA polynucleotide kinase (Toyobo Co., Ltd.) and then ligated to the previously prepared pGV-P2 digest using the restriction sites NheI and XhoI to obtain a reporter plasmid pGV-P2-PPRE having a PPAR response sequence.
The gene was transiently transferred to the human osteosarcoma cell line MG63, and then cells were harvested.
Thereafter, DMSO diluted 20-fold with 10% α-MEM was added to the control group and the positive control group at 5 μl/well. 10% α-MEM was added to the test compound-added group at 95 μl/well. Thereafter, the test compound diluted to various concentrations with DMSO was diluted 20-fold with 10% α-MEM; this was added to the test compound-added group at 5 μl/well.
Thereafter, DMSO was diluted 20-fold with 10% α-MEM; this was added to the control group and the positive control group at 5 μl/well. […] Thereafter, the test compound diluted to various concentrations with DMSO was diluted 20-fold with 10% α-MEM; this was added to the test compound-added group at 5 μl/well.
The cells prepared in Procedures 6 and 7 were cultured for 24 hours and then the medium was removed. […] The mixture was left to stand at room temperature for about 10 minutes and then stirred with a micromixer (TAITEC E-36). The luciferase activity was measured using Analyst (Molecular Devices) and a dose-dependent curve was drawn.
The IC50, Imax, EC50 and Emax of the test compound to be determined are defined as follows.
Here, the concentration of the test compound representing Emax/2 is calculated as EC50. The concentration of the test compound representing (100−Imax)/2 is calculated as IC50. The IC50 and EC50 calculated in this manner were used for evaluating the PPARγ modulator activity.
(In general: Reporter assays use an easily measured gene product as a stand-in for the process of interest.)

Setting [1] is: maximum luciferase activity by test compound alone, positive control (Compound A) 100%, control 0%, read-out: Emax (%).
[2] abbreviates: MG63 cells, luciferase activity.
Where [3] appears, read: test compound alone, concentration representing Emax/2, MG63 cells, luciferase activity, read-out: EC50.

As a reminder, the Emax is the size of the effect at its maximum, as opposed to the concentration needed. Broadly, the IC50 is the point on the concentration scale where inhibition reaches its midpoint. As a reminder, the EC50 is the concentration giving half of the maximal effect. Take `Cc1cc(Oc2ccc3nc(COc4cccc(C(=O)O)c4)n(C)c3c2)cc(C)c1N.Cl.Cl` [Example 2, 3-{[6-(4-Amino-3,5-dimethylphenoxy)-1-methyl-1H-benzimidazol-2-yl]methoxy}benzoic acid dihydrochloride]: the “Imax (%)” value was −44%. In addition, under setting [1], the Emax turned out to be 70%. The IC50 under setting [2] came out at 56.1 nM. Under setting [3], the EC50 worked out at 3.28 nM.
For `Cl.Cn1c(COc2cccc(C(=O)O)c2)nc2ccc(Oc3cccc(F)c3)cc21` [Example 8, 3-{[6-(3-Fluorophenoxy)-1-methyl-1H-benzimidazol-2-yl]methoxy}benzoic acid hydrochloride] the same measures were −34%, 39%, 73.3 nM and 7.72 nM.
As for `Cl.Cn1c(COc2cccc(C(=O)O)c2)nc2ccc(Oc3ccc(Cl)c(F)c3)cc21` [Example 10, 3-{[6-(4-Chloro-3-fluorophenoxy)-1-methyl-1H-benzimidazol-2-yl]methoxy}benzoic acid hydrochloride], the “Imax (%)” value is recorded as −50%. Moreover, the Emax under setting [1] turned out to be 42%. The IC50 under setting [2] amounted to 33.2 nM. Moreover, the EC50 under setting [3] was 2.06 nM.
The corresponding values for `Cl.Cn1c(COc2cccc(C(=O)O)c2)nc2ccc(Oc3ccc(F)c(Cl)c3)cc21` [Example 12, 3-{[6-(3-Chloro-4-fluorophenoxy)-1-methyl-1H-benzimidazol-2-yl]methoxy}benzoic acid hydrochloride] are −43%, 42%, 40.4 nM and 2.34 nM.
`Cl.Cn1c(COc2cccc(C(=O)O)c2)nc2ccc(Oc3ccccc3)cc21` [Example 14, 3-[(1-Methyl-6-phenoxy-1H-benzimidazol-2-yl)methoxy]benzoic acid hydrochloride]: a half-maximal effect (EC50) was put at 51.7 nM, the Emax worked out at 54% and the “Imax (%)” value is −35%.
Take `Cl.Cl.Cn1c(COc2cccc(C(=O)O)c2)nc2ccc(Oc3ccccc3)nc21` [Example 16, 3-[(3-Methyl-5-phenoxy-3H-imidazo[4,5-b]pyridin-2-yl)methoxy]benzoic acid dihydrochloride]: the “Imax (%)” value is on record as −44%. Further, the Emax under setting [1] is 46%. Also, under setting [2], the IC50 came out at 402 nM. Further, under setting [3], the EC50 is 26.4 nM.
